The values that follow come from patent US20150344427A1 (EPIZYME, INC., priority 2012, published 2015).

The IC50 is the concentration that gives 50% inhibition. Low readings indicate higher potency, high ones lower potency.

Some results are limits rather than exact numbers.

The test system of this experiment is H3K27 trimethylation in WSU-DLCL2 cells. Kind of experiment: WSU-DLCL2 Methylation Assay (H3K27me3 ELISA). Type of experiment: cell-based. The conditions noted are these: Homo sapiens, WSUDLCL2, 96 hours incubation, H3K27me3 normalised to total Histone H3. The source says: WSU-DLCL2 suspension cells were purchased from DSMZ (German Collection of Microorganisms and Cell Cultures, Braunschweig, Germany). RPMI/Glutamax Medium, Penicillin-Streptomycin, Heat Inactivated Fetal Bovine Serum, and D-PBS were purchased from Life Technologies, Grand Island, N.Y., USA. Extraction Buffer and Neutralization Buffer (5×) were purchased from Active Motif, Carlsbad, Calif., USA. Rabbit anti-Histone H3 antibody was purchased from Abcam, Cambridge, Mass., USA. Rabbit anti-H3K27me3 and HRP-conjugated anti-rabbit-IgG were purchased from Cell Signaling Technology, Danvers, Mass., USA. TMB “Super Sensitive” substrate was sourced from BioFX Laboratories, Owings Mills, Md., USA. IgG-free Bovine Serum Albumin was purchased from Jackson ImmunoResearch, West Grove, Pa., USA. PBS with Tween (10×PBST) was purchased from KPL, Gaithersburg, Md., USA. Sulfuric Acid was purchased from Ricca Chemical, Arlington, Tex., USA. Immulon ELISA plates were purchased from Thermo, Rochester, N.Y., USA. V-bottom cell culture plates were purchased from Corning Inc., Corning, N.Y., USA. V-bottom polypropylene plates were purchased from Greiner Bio-One, Monroe, N.C., USA.
WSU-DLCL2 suspension cells were maintained in growth medium (RPMI 1640 supplemented with 10% v/v heat inactivated fetal bovine serum and 100 units/mL penicillin-streptomycin) and cultured at 37° C. under 5% CO2 Under assay conditions, cells were incubated in Assay Medium (RPMI 1640 supplemented with 20% v/v heat inactivated fetal bovine serum and 100 units/mL penicillin-streptomycin) at 37° C. under 5% CO2 on a plate shaker.
WSU-DLCL2 cells were seeded in assay medium at a concentration of 50,000 cells per mL to a 96-well V-bottom cell culture plate with 200 μL per well. Compound (1 μL) from 96 well source plates was added directly to V-bottom cell plate. Plates were incubated on a titer-plate shaker at 37° C., 5% CO2 for 96 hours. After four days of incubation, plates were spun at 241×g for five minutes and medium was aspirated gently from each well of cell plate without disturbing cell pellet. Pellet was resuspended in 200 μL DPBS and plates were spun again at 241×g for five minutes. The supernatant was aspirated and cold (4° C.) Extraction buffer (100 μL) was added per well. Plates were incubated at 4° C. on orbital shaker for two hours. Plates were spun at 3427×g×10 minutes. Supernatant (80 μL per well) was transferred to its respective well in 96 well V-bottom polypropylene plate. Neutralization Buffer 5× (20 μL per well) was added to V-bottom polypropylene plate containing supernatant. V-bottom polypropylene plates containing crude histone preparation (CHP) were incubated on orbital shaker x five minutes. Crude Histone Preparations were added (2 μL per well) to each respective well into duplicate 96 well ELISA plates containing 100 μL Coating Buffer (1×PBS+BSA 0.05% w/v). Plates were sealed and incubated overnight at 4° C. The following day, plates were washed three times with 300 μL per well 1×PBST. Wells were blocked for two hours with 300 μL per well ELISA Diluent ((PBS (1×) BSA (2% w/v) and Tween20 (0.05% v/v)). Plates were washed three times with 1×PBST. For the Histone H3 detection plate, 100 μL per well were added of anti-Histone-H3 antibody (Abcam, ab1791) diluted 1:10,000 in ELISA Diluent. For H3K27 trimethylation detection plate, 100 μL per well were added of anti-H3K27me3 diluted 1:2000 in ELISA diluent. Plates were incubated for 90 minutes at room temperature. Plates were washed three times with 300 μL 1×PBST per well. For Histone H3 detection, 100 μL of HRP-conjugated anti-rabbit IgG antibody diluted to 1:6000 in ELISA diluent was added per well. For H3K27me3 detection, 100 μL of HRP conjugated anti-rabbit IgG antibody diluted to 1:4000 in ELISA diluent was added per well. Plates were incubated at room temperature for 90 minutes. Plates were washed four times with 1×PBST 300 μL per well. TMB substrate 100 μL was added per well. […]
Background: In an ELISA, binding on a coated surface is turned into a signal by an enzyme label.

As for `CCN(c1cc(Cl)cc(C(=O)NCc2c(C)[nH]c(C)cc2=O)c1C)[C@H]1CC[C@H](N(C)C)CC1` [Compound 1, 5-chloro-N-((2,6-dimethyl-4-oxo-1,4-dihydropyridin-3-yl)methyl)-3-(((trans)-4-(dimethylamino)cyclohexyl)(ethyl)amino)-2-methylbenzamide], the IC50 amounted to 8.44 µM.

As for `CCN(c1cc(Cl)cc(C(=O)NCc2c(C)n(C)c(C)cc2=O)c1C)[C@H]1CC[C@H](N(C)C)CC1` [Compound 86], the IC50 was above 50 µM.

For the compound `CCn1c(C)cc(=O)c(CNC(=O)c2cc(Cl)cc(N(CC)[C@H]3CC[C@H](N(C)C)CC3)c2C)c1C` [Compound 87], the IC50 was above 50 µM.

On to `CCN(c1cc(-c2ccc(COC)nc2)cc(C(=O)NCc2c(Cl)[nH]c(C)cc2=O)c1C)[C@H]1CC[C@H](N(C)C)CC1` [Compound 88], for which the IC50 came to 2.4 µM.

`CCN(c1cc(-c2cnn(C)c2)cc(C(=O)NCc2c(Cl)[nH]c(C)cc2=O)c1C)[C@H]1CC[C@H](N(C)C)CC1` [Compound 89] had an IC50 of 5.9 µM.

Turning to `CCN(c1cc(-c2ccc(C)nc2)cc(C(=O)NCc2c(Cl)[nH]c(C)cc2=O)c1C)[C@H]1CC[C@H](N(C)C)CC1` [Compound 90], the IC50 was determined as 2.7 µM.

For the compound `CCN(c1cc(-c2cnc(C)cn2)cc(C(=O)NCc2c(Cl)[nH]c(C)cc2=O)c1C)[C@H]1CC[C@H](N(C)C)CC1` [Compound 91], the IC50 worked out at 3.3 µM.

Turning to `CCN(c1cc(-c2ccc(OCCOC)cc2)cc(C(=O)NCc2c(Cl)[nH]c(C)cc2=O)c1C)[C@H]1CC[C@H](N(C)C)CC1` [Compound 92], the midpoint of inhibition, the IC50, lay at 3.9 µM.

The compound `CCN(c1cc(-c2ccc(OCCOC)cc2)cc(C(=O)NCc2c(C)[nH]c(C)cc2=O)c1C)[C@H]1CC[C@H](N(C)C)CC1` [Compound 93] registered an IC50 of 1.7 µM.

Take `CCCN(c1cc(-c2ccc(OCCOC)cc2)cc(C(=O)NCc2c(C)[nH]c(C)cc2=O)c1C)[C@H]1CC[C@H](N(C)C)CC1` [Compound 94]: inhibition was half-maximal at 5.1 µM (IC50).

The compound `CCN(c1cc(-c2ccc(OCCOC)cc2)cc(C(=O)NCc2c(C)[nH]c(C)cc2=O)c1C)[C@H]1CC[C@H](N(C)CCOC)CC1` [Compound 100] registered an IC50 of 7.5 µM.
